{"source": "patent US20080207728A1", "about": "“BICYCLIC ACYLTRYPTOPHANOLS” (priority 2006, published 2008)", "target": "T1, human FSH receptor (Homo sapiens, UniProt P23945)", "T1 construct": "expressed in transfected cells; host or cells: CHO cells (hFSHR clone 16)", "T1 sequence (P23945 18-695)": "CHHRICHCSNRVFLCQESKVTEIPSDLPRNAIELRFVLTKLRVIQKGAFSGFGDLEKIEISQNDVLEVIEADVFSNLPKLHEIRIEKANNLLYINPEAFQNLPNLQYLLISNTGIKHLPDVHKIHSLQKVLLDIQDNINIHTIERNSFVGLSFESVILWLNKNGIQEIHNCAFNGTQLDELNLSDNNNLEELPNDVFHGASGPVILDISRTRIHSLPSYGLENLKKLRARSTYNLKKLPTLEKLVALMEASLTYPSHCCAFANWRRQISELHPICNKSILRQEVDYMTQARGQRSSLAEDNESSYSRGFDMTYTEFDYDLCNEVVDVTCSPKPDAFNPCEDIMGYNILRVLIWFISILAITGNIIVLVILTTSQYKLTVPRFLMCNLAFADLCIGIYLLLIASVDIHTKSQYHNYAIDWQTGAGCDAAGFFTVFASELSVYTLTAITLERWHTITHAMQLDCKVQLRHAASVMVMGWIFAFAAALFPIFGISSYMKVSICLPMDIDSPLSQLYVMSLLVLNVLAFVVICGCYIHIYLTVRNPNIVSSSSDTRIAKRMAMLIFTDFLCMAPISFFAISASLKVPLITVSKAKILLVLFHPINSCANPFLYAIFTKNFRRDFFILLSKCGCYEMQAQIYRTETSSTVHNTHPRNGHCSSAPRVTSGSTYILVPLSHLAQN", "experiment": "HTRF assay for measuring cAMP in cells (FSH antagonism)", "assay_type": "cell-based", "settings": "hFSHR clone 16 cells (CHO cells stably transfected with the human FSH receptor), in the presence of 1e-9 mol/l hFSH, 37° C. for 2 h, read-out: IC50 (FSH-antagonistic effect in the HTRF assay)", "description": "HTRF Assay for Measuring cAMP in Cells\nThe method is based on a competitive immunoassay between native cAMP, which has been produced by the cells, and cAMP which is labelled with XL665. The tracer binding was visualized by a monoclonal antibody, anti-cAMP labelled with cryptate [HTRF=homogeneous time-resolved fluorescence].\nThe specific signal is inversely proportional to the cAMP concentration of the samples employed.\nThe 665 nm/620 nm fluorescence ratio was evaluated.\nThe following material was used: 96-well plates for the tissue culture, 96-well plates with black edge and black base (e.g. Fluotrac 600 from Greiner), 96-well plates for the substance dilutions of polypropylene and cAMP Femtomolar (4000 wells Kit, CIS Bio International # 62AM1PEC).\nThe following reagents were used: BSA (bovine serum albumin) Fraction V protease-free, IBMX (3-isobutyl-1-methylxanthine), hFSH (human follicle stimulating hormone), Triton X-100 analytical grade, potassium fluoride analytical grade, G 418 (Geneticin) and Accutase.\nBuffer 1 (washing and testing buffer) contained PBS, 1 mM CaCl2, 1 mM MgCl2, 0.2% glucose; 0.1% BSA, 1 mM IBMX.\nBuffer 2 (2× lysis buffer) contained 1% Triton X-100 in PBS (without CaCl2 and MgCl2).\nBuffer 3 (assay buffer) contained 50 mM potassium phosphate buffer (pH 7.0); 800 mM potassium fluoride; 0.2% BSA (always added fresh).\nOn day 1, the cells were seeded in 96-well plates (3×10^4 cells per well hFSHR clone 16 cells (CHO cells stably transfected with the human FSH receptor in 150 μl of medium).\nThe next day, test substance dilutions were made up. For this purpose, all the substances were diluted in ice-cold buffer 1 (with or without hFSH), and the substance dilutions were placed on ice until applied to the cells.\nThe cell supernatant was then aspirated off, and the cells were washed 2× with 200 μl of buffer 1. The cells were treated with 60 μl of the appropriate substance concentrations at 37° C. for 2 h. The cells were then lysed with 60 μl of buffer 2 (put onto the supernatant) (on a plate shaker at RT for 30 min).\nThe test conjugates (XL-665 and anti-cAMP cryptate) were diluted in buffer 3 in accordance with the manufacturers' information. The actual mixture for measurement was pipetted into a black 96-well plate (in each case 15 μl of the cell lysate diluted with 35 μl of buffer 1; firstly 25 μl of XL-665 conjugate were pipetted and, after 10 min, 25 μl of the anti-cAMP cryptate were added). This is followed by incubation at RT for 90 minutes. The measurement was carried out in a PheraStar (BMG).\nTissue Culture Conditions\nDose-effect curve (hFSH) for the human receptor: 1e-8, 3e-9, 1 e-9, 3e-10, 1 e-10, 3e-11, 1e-11, 3e-12 mol/l.\nThe test substances were employed in suitable dilutions in the absence (test for agonism) and in the presence of 1e-9 mol/l hFSH.\nThe values of the well ratio were averaged and then entered directly in SigmaPlot versus the concentrations. The maximum and minimum values were determined for each plate, and half the difference is to be regarded as IC50.", "note": "Read-outs that look alike come from different tables or passages of the source.", "data": [{"smiles": "CNC(=O)c1cc(F)cc(-c2cc3c(c(C(=O)NC(CO)Cc4c[nH]c5cccc(C)c45)c2)OCCCC3)c1", "note": "(centres unmarked) [Example 86, 7-(3-Fluoro-5-methylcarbamoyl-phenyl)-2,3,4,5-tetrahydro-benzo[b]oxepine-9-carboxylic acid [2-hydroxy-1-(4-methyl-1H-indol-3-ylmethyl)-ethyl]-amide]", "values": [{"measurement": "IC50", "setting": "Table 1", "result": 1.5, "unit": "µM"}]}, {"smiles": "CNC(=O)c1ccc(-c2cc3c(c(C(=O)NC(CO)Cc4c[nH]c5cccc(F)c45)c2)OC(C)(C)C=C3)cc1Cl", "note": "(centres unmarked) [Example 88, 6-(3-Chloro-4-methylcarbamoyl-phenyl)-2,2-dimethyl-2H-chromene-8-carboxylic acid [2-(4-fluoro-1H-indol-3-yl)-1-hydroxymethyl-ethyl]-amide]", "values": [{"measurement": "IC50", "setting": "Table 1", "result": 0.03, "unit": "µM"}]}, {"smiles": "CNC(=O)c1ccc(-c2cc3c(c(C(=O)NC(CO)Cc4c[nH]c5ccc(F)cc45)c2)OC(C)(C)C=C3)cc1Cl", "note": "(centres unmarked) [Example 89, 6-(3-Chloro-4-methylcarbamoyl-phenyl)-2,2-dimethyl-2H-chromene-8-carboxylic acid [2-(5-fluoro-1H-indol-3-yl)-1-hydroxymethyl-ethyl]-amide]", "values": [{"measurement": "IC50", "setting": "Table 2", "result": 0.02, "unit": "µM"}]}, {"smiles": "CNC(=O)c1cccc(C#Cc2cc3c(c(C(=O)NC(CO)Cc4c[nH]c5cc(F)ccc45)c2)OCCCC3)c1", "note": "(centres unmarked) [Example 91, 7-(3-Methylcarbamoyl-phenylethynyl)-2,3,4,5-tetrahydro-benzo[b]oxepine-9-carboxylic acid [2-(6-fluoro-1H-indol-3-yl)-1-hydroxymethyl-ethyl]-amide]", "values": [{"measurement": "IC50", "setting": "Table 2", "result": 0.06, "unit": "µM"}]}, {"smiles": "O=C(N[C@@H](CO)Cc1c[nH]c2ccccc12)c1cc(-c2ccc(-c3ccccc3)cc2)cc2c1OCCO2", "note": "[Example 92, 7-Biphenyl-4-yl-2,3-dihydro-benzo[1,4]dioxine-5-carboxylic acid [(R)-1-hydroxymethyl-2-(1H-indol-3-yl)-ethyl]-amide]", "values": [{"measurement": "IC50", "setting": "Table 2", "result": 0.5, "unit": "µM"}]}, {"smiles": "O=C(N[C@@H](CO)Cc1c[nH]c2ccccc12)c1cc(-c2ccc(CO)cc2)cc2c1OCCO2", "note": "[Example 96, 7-(4-Hydroxymethyl-phenyl)-2,3-dihydro-benzo[1,4]dioxine-5-carboxylic acid [(R)-1-hydroxymethyl-2-(1H-indol-3-yl)-ethyl]-amide]", "values": [{"measurement": "IC50", "setting": "Table 2", "result": 1, "unit": "µM"}]}, {"smiles": "CSc1cccc(-c2cc3c(c(C(=O)N[C@@H](CO)Cc4c[nH]c5ccccc45)c2)OCCO3)c1", "note": "[Example 100, 7-(3-Methylsulfanyl-phenyl)-2,3-dihydro-benzo[1,4]dioxine-5-carboxylic acid [(R)-1-hydroxymethyl-2-(1H-indol-3-yl)-ethyl]-amide]", "values": [{"measurement": "IC50", "setting": "Table 2", "result": 0.9, "unit": "µM"}]}, {"smiles": "N#Cc1cc(-c2cc3c(c(C(=O)N[C@@H](CO)Cc4c[nH]c5ccccc45)c2)OCCO3)ccc1F", "note": "[Example 104, 7-(3-Cyano-4-fluoro-phenyl)-2,3-dihydro-benzo[1,4]dioxine-5-carboxylic acid [(R)-1-hydroxymethyl-2-(1H-indol-3-yl)-ethyl]-amide]", "values": [{"measurement": "IC50", "setting": "Table 2", "result": 1, "unit": "µM"}]}, {"smiles": "COc1ccc(-c2cc3c(c(C(=O)N[C@@H](CO)Cc4c[nH]c5ccccc45)c2)OCCO3)cc1F", "note": "[Example 109, 7-(3-Fluoro-4-methoxy-phenyl)-2,3-dihydro-benzo[1,4]dioxine-5-carboxylic acid [(R)-1-hydroxymethyl-2-(1H-indol-3-yl)-ethyl]-amide]", "values": [{"measurement": "IC50", "setting": "Table 2", "result": 0.95, "unit": "µM"}]}, {"smiles": "CS(=O)(=O)c1cccc(-c2cc3c(c(C(=O)N[C@@H](CO)Cc4c[nH]c5ccccc45)c2)OCCO3)c1", "note": "[Example 116, 7-(3-Methanesulfonyl-phenyl)-2,3-dihydro-benzo[1,4]dioxine-5-carboxylic acid [(R)-1-hydroxymethyl-2-(1H-indol-3-yl)-ethyl]-amide]", "values": [{"measurement": "IC50", "setting": "Table 2", "result": 2, "unit": "µM"}]}, {"smiles": "COC(=O)c1ccc(-c2cc3c(c(C(=O)N[C@@H](CO)Cc4c[nH]c5ccccc45)c2)OCCO3)cc1OC", "note": "[Example 118, 4-{8-[(R)-1-Hydroxymethyl-2-(1H-indol-3-yl)-ethylcarbamoyl]-2,3-dihydro-benzo[1,4]dioxin-6-yl}-2-methoxy-benzoic acid methyl ester]", "values": [{"measurement": "IC50", "setting": "Table 2", "result": 0.13, "unit": "µM"}]}, {"smiles": "CN(C)S(=O)(=O)c1ccc(-c2cc3c(c(C(=O)N[C@@H](CO)Cc4c[nH]c5ccccc45)c2)OCCO3)cc1", "note": "[Example 123, 7-(4-Dimethylsulfamoyl-phenyl)-2,3-dihydro-benzo[1,4]dioxine-5-carboxylic acid [(R)-1-hydroxymethyl-2-(1H-indol-3-yl)-ethyl]-amide]", "values": [{"measurement": "IC50", "setting": "Table 2", "result": 2, "unit": "µM"}]}, {"smiles": "O=C(N[C@@H](CO)Cc1c[nH]c2ccccc12)c1cc(-c2cccc(Cl)c2)cc2c1OCCO2", "note": "[Example 130, 7-(3-Chloro-phenyl)-2,3-dihydro-benzo[1,4]dioxine-5-carboxylic acid [(R)-1-hydroxymethyl-2-(1H-indol-3-yl)-ethyl]-amide]", "values": [{"measurement": "IC50", "setting": "Table 2", "result": 3, "unit": "µM"}]}, {"smiles": "Nc1cccc(-c2cc3c(c(C(=O)N[C@@H](CO)Cc4c[nH]c5ccccc45)c2)OCCO3)c1", "note": "[Example 135, 7-(3-Amino-phenyl)-2,3-dihydro-benzo[1,4]dioxine-5-carboxylic acid [(R)-1-hydroxymethyl-2-(1H-indol-3-yl)-ethyl]-amide]", "values": [{"measurement": "IC50", "setting": "Table 2", "result": 0.8, "unit": "µM"}]}, {"smiles": "CNC(=O)c1ccc(-c2cc3c(c(C(=O)N[C@@H](CO)Cc4c[nH]c5ccccc45)c2)OCCO3)cc1", "note": "[Example 142, 7-(4-Methylcarbamoyl-phenyl)-2,3-dihydro-benzo[1,4]dioxine-5-carboxylic acid [(R)-1-hydroxymethyl-2-(1H-indol-3-yl)-ethyl]-amide]", "values": [{"measurement": "IC50", "setting": "Table 2", "result": 0.2, "unit": "µM"}]}, {"smiles": "Cc1ccccc1-c1cc2c(c(C(=O)N[C@@H](CO)Cc3c[nH]c4ccccc34)c1)OCCO2", "note": "[Example 143, 7-o-Tolyl-2,3-dihydro-benzo[1,4]dioxine-5-carboxylic acid [(R)-1-hydroxymethyl-2-(1H-indol-3-yl)-ethyl]-amide]", "values": [{"measurement": "IC50", "setting": "Table 2", "result": 9, "unit": "µM"}]}, {"smiles": "CNC(=O)c1ccc(-c2cc3c(c(C(=O)NC(CO)Cc4c[nH]c5c(F)cc(F)cc45)c2)OC(C)(C)CC3)cc1Cl", "note": "(centres unmarked) [Example 190, 6-(3-Chloro-4-methylcarbamoyl-phenyl)-2,2-dimethyl-chroman-8-carboxylic acid [2-(5,7-difluoro-1H-indol-3-yl)-1-hydroxymethyl-ethyl]amide]", "values": [{"measurement": "IC50", "setting": "Table 2", "result": 0.07, "unit": "µM"}]}]}
